Patent publication US9481709B2, “Boropeptide inhibitors of enteropeptidase and their uses in treatment of obesity, overweight and/or diseases associated with an abnormal fat metabolism” (OBE THERAPY BIOTECHNOLOGY, priority 2007, dated 2016)

Key:
[1] = Effect on weight in a model of obesity induced by a hyperlipidic diet; type: in vivo, mice; settings: 40 mg/kg/day oral; for gain or loss of weight according to the initial weight, mean: high fat diet, Swiss male mice
Experimental: 1. Effect of OBE2001 on Weight
The aim of this first in vivo experiment is to determine the anti-obesity effect of OBE2001 in a model of obesity induced by a hyperlipidic diet in mice.
OBE2001 (Acetyl-Ala-Phe-BoroArg) was provided under salt form (molecular weight of 568.3 g/mol). Swiss male mice, 4 weeks of age, were divided into 2 groups of 10 animals each, receiving the following:
Administration of OBE2001 was carried out as a solution in water. Both OBE2001 or vehicle (water used a negative control) were administrated to the animals daily by the oral route in an administration of 5 ml/kg body weight.
Concerning the feeding of the animals, before the experiments (acclimation period), normal diet (reference No. 824050 SDSIDIETEX food) was available ad libitum during the acclimation period. 7 days before the beginning of the study, a hypercaloric High Fat diet ([…], 4.73 Kcal/g; reference 824053 SDSIDIETEX) was given to groups 1 and 2.
Animals were weighed daily from at D-8 (8 days before the beginning of the experiment) then from D-5 to the end of the study. From D1 (first day of the experiment), food was given ad libitum.

[2] = Effect on triglyceride absorption after oral gavage with clinoleic 20% + cholesterol; type: in vivo, mice; settings: for triglycerides, area under the curve: 0-360 min
Experimental: 2. Effect of OBE2001 on Triglyceride Absorption The scope of this second in vivo experiment was to analyse the effects of the OBE2001 compound on triglycerides absorption. To that purpose, mice were injected with OBE2001, before and/or after gavage with a solution enriched with cholesterol and free fatty acids (clinoleic at 20%). In this study, 7 week old Swiss CD1 male mice were weighed and randomized for body weight; 3 groups of 5 mice were then constituted of: • Group 1 (solvant): control group. Vehicle (H2O+2% DMSO) at t-5 min+solution A (clinoleic 20%+cholesterol) at t0. • Group 2 (OBE 25+25): OBE2001 25 mg/kg (before and after gavage). OBE2001 25 mg/kg (solution B) at t-5 min+OBE2001 25 mg/kg in solution A (solution C) at t0. • Group 3 (OBE 25): OBE2001 25 mg/kg […]. Vehicle (H2O+2% DMSO) at t-5 min+OBE2001 25 mg/kg in solution A (solution C) at t0. 30 minutes before treatment (with solution A, B or C) blood was collected by retro orbital puncture after a slight anaesthesia (Isoflurane), to determine basal (t0) triglycerides levels. All solutions were then administered by oral gavage at t-5 (vehicle or solution B) or t0 (solution A or C). After administration of the solution A or C (containing fatty acids+cholesterol), blood was collected again by retro orbital puncture after a slight anaesthesia (Isoflurane) at time 60, 120, 180, 300 and 360 minutes for measurement of triglycerides levels. At time 360 minutes, mice were sacrificed.

[3] = molecular target: Enteropeptidase (Homo sapiens, UniProt P98073); assay: Enteropeptidase
Enteropeptidase, sequence (P98073 2-1019): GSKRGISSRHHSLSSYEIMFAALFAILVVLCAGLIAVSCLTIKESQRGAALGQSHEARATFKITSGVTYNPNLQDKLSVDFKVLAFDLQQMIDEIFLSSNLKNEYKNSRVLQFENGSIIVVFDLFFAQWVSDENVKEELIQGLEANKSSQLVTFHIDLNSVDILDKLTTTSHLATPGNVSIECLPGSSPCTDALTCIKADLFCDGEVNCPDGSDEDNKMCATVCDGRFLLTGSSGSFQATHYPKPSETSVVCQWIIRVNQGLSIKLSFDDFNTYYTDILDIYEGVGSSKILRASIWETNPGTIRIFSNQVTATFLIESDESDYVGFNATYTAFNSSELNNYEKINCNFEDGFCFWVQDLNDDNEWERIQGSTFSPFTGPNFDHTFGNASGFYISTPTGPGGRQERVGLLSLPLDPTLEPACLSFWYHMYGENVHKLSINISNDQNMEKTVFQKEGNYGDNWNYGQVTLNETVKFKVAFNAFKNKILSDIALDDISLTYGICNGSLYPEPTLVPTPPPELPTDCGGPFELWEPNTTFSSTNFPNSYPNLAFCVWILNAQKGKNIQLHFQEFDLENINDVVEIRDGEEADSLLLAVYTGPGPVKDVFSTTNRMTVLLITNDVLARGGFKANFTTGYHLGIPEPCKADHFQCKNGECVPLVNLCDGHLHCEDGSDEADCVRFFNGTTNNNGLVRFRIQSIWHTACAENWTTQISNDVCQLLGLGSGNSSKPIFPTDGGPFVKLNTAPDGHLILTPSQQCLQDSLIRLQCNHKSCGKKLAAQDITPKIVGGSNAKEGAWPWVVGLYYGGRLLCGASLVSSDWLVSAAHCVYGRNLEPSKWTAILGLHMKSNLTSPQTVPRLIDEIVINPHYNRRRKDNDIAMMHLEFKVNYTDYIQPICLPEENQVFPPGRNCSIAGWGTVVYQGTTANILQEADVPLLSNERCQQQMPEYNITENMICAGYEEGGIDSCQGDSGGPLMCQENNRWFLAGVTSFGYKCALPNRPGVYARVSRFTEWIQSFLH
Excerpt: (§1) Table printed on a drawing sheet, Fig. 5
Head of the field: Enteropeptidase
(§2) The patent's description of the figure: FIG. 5 is a Table showing the IC 50 (in nM) of enteropeptidase, various serine proteases and other enzyme families, in the presence of compounds OBE 1999, OBE 2000, OBE 2001 or OBE 2002.
(§3) First copying reader's note: Each column is one compound; each row gives its IC50 against the named enzyme.
Where the first naming reader finds the target: head: Enteropeptidase

[4] = molecular target: Plasmin (Homo sapiens, UniProt P00747); assay: Plasmin
Plasmin, sequence (P00747 97-810): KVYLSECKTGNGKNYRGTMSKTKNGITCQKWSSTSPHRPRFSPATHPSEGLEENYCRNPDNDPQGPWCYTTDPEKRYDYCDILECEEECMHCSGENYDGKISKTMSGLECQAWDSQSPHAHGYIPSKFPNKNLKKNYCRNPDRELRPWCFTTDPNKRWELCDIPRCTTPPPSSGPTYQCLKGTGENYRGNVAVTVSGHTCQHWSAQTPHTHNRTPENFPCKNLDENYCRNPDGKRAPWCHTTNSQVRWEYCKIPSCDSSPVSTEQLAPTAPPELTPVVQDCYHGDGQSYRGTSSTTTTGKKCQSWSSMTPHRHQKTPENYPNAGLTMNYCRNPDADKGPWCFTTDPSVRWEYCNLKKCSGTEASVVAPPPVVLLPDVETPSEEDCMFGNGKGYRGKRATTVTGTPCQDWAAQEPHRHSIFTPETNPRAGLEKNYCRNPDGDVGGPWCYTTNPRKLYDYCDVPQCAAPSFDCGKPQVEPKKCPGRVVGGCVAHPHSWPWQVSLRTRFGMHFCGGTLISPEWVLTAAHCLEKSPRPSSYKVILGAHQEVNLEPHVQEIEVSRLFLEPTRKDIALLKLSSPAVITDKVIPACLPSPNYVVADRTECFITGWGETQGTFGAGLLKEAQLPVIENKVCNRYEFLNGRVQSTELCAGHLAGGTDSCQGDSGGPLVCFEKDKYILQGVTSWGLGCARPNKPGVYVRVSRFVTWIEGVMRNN
Excerpt: as §1
Head of the field: Plasmin
as §2, §3
Where the first naming reader finds the target: head: Plasmin

[5] = molecular target: Kallikrein (Homo sapiens, UniProt P03952); assay: Kallikrein
Kallikrein, sequence (P03952 20-638): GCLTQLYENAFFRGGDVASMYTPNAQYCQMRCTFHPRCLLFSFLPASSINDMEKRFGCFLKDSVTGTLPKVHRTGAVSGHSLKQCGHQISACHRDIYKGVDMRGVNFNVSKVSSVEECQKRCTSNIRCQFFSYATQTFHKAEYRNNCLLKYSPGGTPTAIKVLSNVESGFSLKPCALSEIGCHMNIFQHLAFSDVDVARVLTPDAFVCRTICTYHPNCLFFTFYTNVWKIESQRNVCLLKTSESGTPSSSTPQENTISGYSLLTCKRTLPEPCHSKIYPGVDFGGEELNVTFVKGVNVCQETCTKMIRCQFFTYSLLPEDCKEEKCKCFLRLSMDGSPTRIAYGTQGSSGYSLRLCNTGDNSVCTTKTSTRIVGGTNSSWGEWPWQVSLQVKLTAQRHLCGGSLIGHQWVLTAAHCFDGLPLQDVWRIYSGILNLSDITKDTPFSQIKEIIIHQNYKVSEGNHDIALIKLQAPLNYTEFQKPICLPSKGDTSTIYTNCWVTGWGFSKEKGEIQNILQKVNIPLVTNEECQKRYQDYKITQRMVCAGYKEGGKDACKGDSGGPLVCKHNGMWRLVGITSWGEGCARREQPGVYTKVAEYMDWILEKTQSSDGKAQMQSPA
Excerpt: as §1
Head of the field: Kallikrein
as §2, §3
Where the first naming reader finds the target: head: Kallikrein

## CC(=O)N[C@@H](C)C(=O)N[C@@H](Cc1ccccc1)C(=O)N[C@@H](CCCNC(=N)N)B1OC2C[C@@H]3C[C@@H](C3(C)C)[C@]2(C)O1 (some centres unmarked) [OBE2001]
[1]; significant from day 4, highly significant from day 8
  weight of treated mice versus control group: significantly lower
[1]; D1
  gain or loss of weight according to the initial weight, mean: -2.7 g
[1]; D2
  gain or loss of weight according to the initial weight, mean: -1.2 g
[1]; D3
  gain or loss of weight according to the initial weight, mean: -0.8 g
[1]; D4
  gain or loss of weight according to the initial weight, mean: 0.2 g
[1]; D5
  gain or loss of weight according to the initial weight, mean: 0.7 g
[1]; D6
  gain or loss of weight according to the initial weight, mean: 1.0 g
[1]; D7
  gain or loss of weight according to the initial weight, mean: 0.9 g
[1]; D8
  gain or loss of weight according to the initial weight, mean: 1.3 g
[1]; D9
  gain or loss of weight according to the initial weight, mean: 1.0 g
[1]; D10
  gain or loss of weight according to the initial weight, mean: 1.1 g
[1]; D11
  gain or loss of weight according to the initial weight, mean: 0.5 g
[1]; D12
  gain or loss of weight according to the initial weight, mean: 1.8 g
[1]; D13
  gain or loss of weight according to the initial weight, mean: 2.0 g
[2]; Group 2, 25+25 mg/kg
  triglycerides, area under the curve: 48559
[2]; Group 3, 25 mg/kg
  triglycerides, area under the curve: 56273
[2]; 25 mg/kg, groups 2 and 3
  triglyceride absorption compared to the control group: decrease in triglyceride absorption
[2]; 60 min, Group 2, 25 mg/kg at t-5 min + 25 mg/kg at t0, oral gavage
  plasma triglycerides, % of basal value: 243.39 % of basal value
[2]; 60 min, Group 3, single 25 mg/kg in solution A at t0, oral gavage
  plasma triglycerides, % of basal value: 293.17 % of basal value
[2]; 120 min, Group 2, 25 mg/kg at t-5 min + 25 mg/kg at t0, oral gavage
  plasma triglycerides, % of basal value: 202.34 % of basal value
[2]; 120 min, Group 3, single 25 mg/kg in solution A at t0, oral gavage
  plasma triglycerides, % of basal value: 269.24 % of basal value
[2]; 180 min, Group 2, 25 mg/kg at t-5 min + 25 mg/kg at t0, oral gavage
  plasma triglycerides, % of basal value: 127.81 % of basal value
[2]; 180 min, Group 3, single 25 mg/kg in solution A at t0, oral gavage
  plasma triglycerides, % of basal value: 126.45 % of basal value
[2]; 300 min, Group 2, 25 mg/kg at t-5 min + 25 mg/kg at t0, oral gavage
  plasma triglycerides, % of basal value: 62.35 % of basal value
[2]; 300 min, Group 3, single 25 mg/kg in solution A at t0, oral gavage
  plasma triglycerides, % of basal value: 70.22 % of basal value
[2]; 360 min, Group 2, 25 mg/kg at t-5 min + 25 mg/kg at t0, oral gavage
  plasma triglycerides, % of basal value: 56.71 % of basal value
[2]; 360 min, Group 3, single 25 mg/kg in solution A at t0, oral gavage
  plasma triglycerides, % of basal value: 60.92 % of basal value
[2]; Group 2/group 1, 25+25 mg/kg, 25 mg/kg
  % of decrease of triglyceride area under the curve versus group 1: 26%
[2]; Group 3/group 1, 25 mg/kg
  % of decrease of triglyceride area under the curve versus group 1: 14%
[3]
  IC50: 7.3 nM
[4]
  IC50: 21.7 nM
[5]
  IC50: 6.9 nM
